Data reported in patent publication US20250027130A1, “Nucleic Acid Synthesis and Sequencing Using Tethered Nucleoside Triphosphates” (The Regents of the University of California, priority 2022, published 2025).

Tested on: MaPylRS
Assay: Intact tRNA mass spectrometry: acylation of Ma-tRNA^Pyl by MaPylRS
Format: biochemical, Methanomethylophilus alvus
Details: MaPylRS 2.5 μM, Ma-tRNA^Pyl 25 μM, 37° C., 2 h; average of 3 technical replicates

CC(C)(C)OC(=O)NCCCCC(C(=O)O)C(=O)O [Substrate 16]
Yield of diacylated Ma-tRNA^Pyl: 0.0% | Yield of monoacylated Ma-tRNA^Pyl: 0.25%
